These results are taken from US6395719B1, “Methods for increasing levels of acetylcholine” (Eli Lilly and Company, priority 1998, dated 2002).

Assay [1] deals with choline acetyltransferase (ChAT). Nature of the assay: ChAT activity in hippocampus and frontal cortex homogenates of ovariectomized rats, radio-labelled assay of acetylcholine bio-synthesis. The settings on record: daily s.c. or oral gavage for 3 or 10 days, raloxifene HCl 3 mg/kg/day, estradiol benzoate 0.03 or 0.3 mg/kg/day; for levels of ChAT, difference from the sham controls: OVX rats. The format is in vivo, female Sprague-Dawley rats. As for the experimental part: Forty female Sprague-Dawley rats (weight range of 300 to 325 g, six months old) are obtained from Harlan. The animals are either bilaterally ovariectomized (OVX) or exposed to a Sham surgical procedure, and then shipped after two weeks. Upon arrival, they are housed in metal hanging cages in groups of 3 or 4 per cage and have ad libitum access to food and water for one week. Room temperature is maintained at 22.2°±1.70° C. with a minimum relative humidity of 40%. The photoperiod in the room is 12 hours light and 12 hours dark.
The animals are dosed daily by subcutaneous injection or oral gavage with either raloxifene hydrochloride, at 3 mg/kg/day in a vehicle containing 10% cyclodextrin, estradiol benzoate at 0.03 or 0.3 mg/kg/day, or vehicle control. Animals were treated for 3 or 10 days. There are twenty animals per each dosing regimen. At the appropriate time intervals, the animals are sacrificed and their brains dissected. The particular portions of the brains are homogenized and assayed. Homogenates from the hippocampus and frontal cortex were processed and determination of ChAT activity was made by a radio-labelled assay of the bio-synthesis of acetylcholine. This procedure may be found in Schoepp et al., J. Neural Transmiss., 78:183-193, 1989, the teachings of which are incorporated by reference.

Assay [2] concerns Alzheimer's disease. Nature of the assay: Amelioration of Alzheimer's disease in post-menopausal women on chronic administration. The format is in vivo, human. To be noted: post-menopausal women with Alzheimer's disease; 60 mg per day oral; after 2-12 months. From the text: Thus, the current invention provides methods for the treatment and prophylaxis of syndromes related to the loss of memory, learning, and cognitive function, often seen in women who are estrogen deprived, especially post-menopausal women. An example of such a syndrome is senile dementia of the Alzheimer's type. Beneficial effects, such as a decrease in memory loss, associated with administration of a compound of this invention become apparent after chronic administration.

Assay [3] deals with cognitive and memory functions. In words: Prophylactic use: cognitive and memory function by standard tests in peri- or post-menopausal women. The settings on record: 60 mg/day oral for 1-5 years. The format is in vivo, human. As for the experimental part:
The methods of the present invention may also be employed in a prophylactic modality. For example, a group of peri- or post-menopausal women may have their cognitive and memory function evaluated by standard tests. Following the establishment of this baseline, the women are administered raloxifene hydrochloride at 60 mg/day, via the oral route, for a period 1-5 years.

Regarding `C[C@]12CC[C@@H]3c4ccc(OC(=O)c5ccccc5)cc4CC[C@H]3[C@@H]1CC[C@@H]2O` [estradiol benzoate, reference compound], in assay [1], the “levels of ChAT, difference from the sham controls” value is “insignificant difference” and the “levels of ChAT versus the OVX controls” value is reported as “significantly (p<0.05) increased”.

For the molecule `Cl.O=C(c1ccc(OCCN2CCCCC2)cc1)c1c(-c2ccc(O)cc2)sc2cc(O)ccc12` [raloxifene hydrochloride, [2-(4-hydroxyphenyl)-6-hydroxybenzo[b]thien-3-yl][4-[2-(1-piperidinyl)ethoxy]phenyl]methanone hydrochloride], in assay [1], the “levels of ChAT, difference from the sham controls” value was “insignificant difference” and the “levels of ChAT versus the OVX controls” value is reported as “significantly (p<0.05) increased”. Further, the “effect on Alzheimer's disease” value in assay [2] is given as “amelioration of their disease”. The “loss of cognitive and memory functions relative to placebo” value in assay [3] is listed as “decrease in loss of these functions”.
